Results from patent publication US11753395B2 (Kinnate Biopharma Inc., priority 2021, dated 2023).

Key:
Ba/F3-TPR-MET cells = target: T1, Ba/F3-TPR-MET cells (Homo sapiens, UniProt P08581); test: CellTiter-Glo Cell Viability Assay, Ba/F3-TPR-MET; format: cell-based; conditions: 72 hours
T1 construct: fused on or other part: P12270 (Nucleoprotein TPR)
Outline: (§1)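 IC50 values come from curve-fitted luminescence. Viable-cell ATP was read by CellTiter-Glo 2.0 after a 72 h, 37 °C incubation of 3000 TPR-MET or D1228N-mutant Ba/F3 cells per well. Compounds were tested as a 9-point, 3-fold series with 0.1% DMSO final.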

MET D1228N = target: T2, MET D1228N (Homo sapiens, UniProt P08581, D1228N); test: MET D1228N Mobility Shift Assay; conditions: biochemical assay IC50; 100 μM ATP, 60 minute kinase reaction
T2 construct: purchased Signalchem M52-12IG
Outline: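 Microfluidic electrophoresis quantified phosphorylated versus unphosphorylated 5-FAM-KKKKEEIYFFF peptide (1.5 μM) after a 60 min reaction with 100 μM ATP. MET D1228N (0.313 nM) in 50 mM HEPES, 10 mM MgCl2, 2 mM DTT was preincubated 30 min; IC50 fitted to conversion inhibition.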

[1] = target: T3, Ba/F3-TPR-MET-D1228N cells (Homo sapiens, UniProt P08581, D1228N, cells depend on it); test: CellTiter-Glo Cell Viability Assay, Ba/F3-TPR-MET-D1228N; format: cell-based; conditions: 72 hours
T3 construct: fused on or other part: P12270 (Nucleoprotein TPR)
Outline: as §1

MET = target: T4, MET (Homo sapiens, UniProt P08581); test: MET Mobility Shift Assay; conditions: biochemical assay IC50; 100 μM ATP, 60 minute kinase reaction
T4 construct: purchased Carna Biosciences 08-151
Outline: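 IC50s come from inhibition of substrate-to-phosphopeptide conversion, read by electrophoretic mobility shift. Reaction: 100 μM ATP, 1.5 μM 5-FAM peptide, 0.625 nM MET, 10 mM MgCl2, 60 min, after a 30 min room-temperature enzyme pre-incubation, quenched with EDTA.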

T4 sequence (P08581 25-1390): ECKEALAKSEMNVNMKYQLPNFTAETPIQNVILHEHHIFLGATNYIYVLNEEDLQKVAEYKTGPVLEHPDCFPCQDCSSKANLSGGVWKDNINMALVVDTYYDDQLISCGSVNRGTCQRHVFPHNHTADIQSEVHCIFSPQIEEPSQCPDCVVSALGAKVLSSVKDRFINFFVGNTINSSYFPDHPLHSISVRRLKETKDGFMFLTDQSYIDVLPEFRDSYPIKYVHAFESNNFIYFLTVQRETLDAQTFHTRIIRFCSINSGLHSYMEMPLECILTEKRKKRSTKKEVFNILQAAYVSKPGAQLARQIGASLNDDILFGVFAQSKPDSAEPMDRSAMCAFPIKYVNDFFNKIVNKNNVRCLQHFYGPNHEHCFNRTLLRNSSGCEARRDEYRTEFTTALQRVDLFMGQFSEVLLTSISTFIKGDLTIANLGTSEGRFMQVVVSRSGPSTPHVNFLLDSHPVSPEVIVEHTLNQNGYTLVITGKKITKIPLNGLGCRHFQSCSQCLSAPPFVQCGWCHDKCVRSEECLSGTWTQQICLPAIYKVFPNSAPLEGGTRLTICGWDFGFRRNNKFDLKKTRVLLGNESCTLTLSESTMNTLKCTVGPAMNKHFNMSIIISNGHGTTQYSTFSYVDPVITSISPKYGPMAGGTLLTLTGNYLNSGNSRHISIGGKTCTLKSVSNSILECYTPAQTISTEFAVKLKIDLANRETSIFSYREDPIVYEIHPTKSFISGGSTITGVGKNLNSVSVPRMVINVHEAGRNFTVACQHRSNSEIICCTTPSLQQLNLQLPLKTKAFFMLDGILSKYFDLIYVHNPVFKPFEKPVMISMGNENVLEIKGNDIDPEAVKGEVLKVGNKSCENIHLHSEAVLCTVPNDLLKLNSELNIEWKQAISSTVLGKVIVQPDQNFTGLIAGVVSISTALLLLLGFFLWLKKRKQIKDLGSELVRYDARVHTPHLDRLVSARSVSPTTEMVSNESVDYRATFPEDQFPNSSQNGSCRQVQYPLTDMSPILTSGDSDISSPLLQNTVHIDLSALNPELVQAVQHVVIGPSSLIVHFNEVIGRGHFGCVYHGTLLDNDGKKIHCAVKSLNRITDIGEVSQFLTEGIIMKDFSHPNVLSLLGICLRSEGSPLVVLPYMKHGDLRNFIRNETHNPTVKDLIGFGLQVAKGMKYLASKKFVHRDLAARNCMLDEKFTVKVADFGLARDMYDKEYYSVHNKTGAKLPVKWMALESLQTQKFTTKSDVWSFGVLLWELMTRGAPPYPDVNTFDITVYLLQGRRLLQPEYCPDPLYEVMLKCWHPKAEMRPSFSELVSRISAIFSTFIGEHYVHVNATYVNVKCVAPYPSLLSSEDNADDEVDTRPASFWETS
T3 sequence (P08581 whole entry D1228N, the tested form may be a part): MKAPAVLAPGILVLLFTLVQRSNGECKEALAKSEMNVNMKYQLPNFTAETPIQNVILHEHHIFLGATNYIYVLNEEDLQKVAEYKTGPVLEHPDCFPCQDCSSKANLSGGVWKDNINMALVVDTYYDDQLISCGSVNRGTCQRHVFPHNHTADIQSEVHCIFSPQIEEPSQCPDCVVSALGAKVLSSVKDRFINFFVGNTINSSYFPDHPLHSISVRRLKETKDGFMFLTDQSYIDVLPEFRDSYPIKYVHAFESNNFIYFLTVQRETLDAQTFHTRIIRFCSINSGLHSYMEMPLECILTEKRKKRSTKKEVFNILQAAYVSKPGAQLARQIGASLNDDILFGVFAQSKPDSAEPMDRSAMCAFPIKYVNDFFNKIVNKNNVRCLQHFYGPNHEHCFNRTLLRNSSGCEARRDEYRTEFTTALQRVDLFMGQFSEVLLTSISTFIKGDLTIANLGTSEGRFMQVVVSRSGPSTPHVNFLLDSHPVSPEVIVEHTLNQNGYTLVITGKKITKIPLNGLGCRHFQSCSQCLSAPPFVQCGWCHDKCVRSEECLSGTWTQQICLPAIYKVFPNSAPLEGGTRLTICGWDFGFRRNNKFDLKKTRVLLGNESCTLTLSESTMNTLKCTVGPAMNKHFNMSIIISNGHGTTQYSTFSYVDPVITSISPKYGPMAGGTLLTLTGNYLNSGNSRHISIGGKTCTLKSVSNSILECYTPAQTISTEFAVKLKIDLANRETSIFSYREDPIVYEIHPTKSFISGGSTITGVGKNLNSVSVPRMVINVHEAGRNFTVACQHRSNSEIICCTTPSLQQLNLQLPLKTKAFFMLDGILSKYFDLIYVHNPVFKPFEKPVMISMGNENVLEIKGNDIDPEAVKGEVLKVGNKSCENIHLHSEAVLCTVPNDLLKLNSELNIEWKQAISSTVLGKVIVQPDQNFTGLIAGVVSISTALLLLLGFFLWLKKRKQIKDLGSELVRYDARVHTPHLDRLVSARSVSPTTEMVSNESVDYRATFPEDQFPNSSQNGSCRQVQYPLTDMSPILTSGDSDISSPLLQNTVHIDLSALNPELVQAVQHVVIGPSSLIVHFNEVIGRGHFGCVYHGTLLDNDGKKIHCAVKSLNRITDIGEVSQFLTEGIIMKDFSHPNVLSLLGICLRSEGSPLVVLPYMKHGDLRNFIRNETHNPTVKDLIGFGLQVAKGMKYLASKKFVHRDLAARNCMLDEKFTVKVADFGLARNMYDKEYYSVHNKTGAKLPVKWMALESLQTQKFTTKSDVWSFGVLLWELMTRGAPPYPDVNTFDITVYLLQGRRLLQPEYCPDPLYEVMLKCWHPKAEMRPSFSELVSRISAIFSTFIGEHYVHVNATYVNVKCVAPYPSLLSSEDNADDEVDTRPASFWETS
T2 sequence (P08581 25-1390 D1228N): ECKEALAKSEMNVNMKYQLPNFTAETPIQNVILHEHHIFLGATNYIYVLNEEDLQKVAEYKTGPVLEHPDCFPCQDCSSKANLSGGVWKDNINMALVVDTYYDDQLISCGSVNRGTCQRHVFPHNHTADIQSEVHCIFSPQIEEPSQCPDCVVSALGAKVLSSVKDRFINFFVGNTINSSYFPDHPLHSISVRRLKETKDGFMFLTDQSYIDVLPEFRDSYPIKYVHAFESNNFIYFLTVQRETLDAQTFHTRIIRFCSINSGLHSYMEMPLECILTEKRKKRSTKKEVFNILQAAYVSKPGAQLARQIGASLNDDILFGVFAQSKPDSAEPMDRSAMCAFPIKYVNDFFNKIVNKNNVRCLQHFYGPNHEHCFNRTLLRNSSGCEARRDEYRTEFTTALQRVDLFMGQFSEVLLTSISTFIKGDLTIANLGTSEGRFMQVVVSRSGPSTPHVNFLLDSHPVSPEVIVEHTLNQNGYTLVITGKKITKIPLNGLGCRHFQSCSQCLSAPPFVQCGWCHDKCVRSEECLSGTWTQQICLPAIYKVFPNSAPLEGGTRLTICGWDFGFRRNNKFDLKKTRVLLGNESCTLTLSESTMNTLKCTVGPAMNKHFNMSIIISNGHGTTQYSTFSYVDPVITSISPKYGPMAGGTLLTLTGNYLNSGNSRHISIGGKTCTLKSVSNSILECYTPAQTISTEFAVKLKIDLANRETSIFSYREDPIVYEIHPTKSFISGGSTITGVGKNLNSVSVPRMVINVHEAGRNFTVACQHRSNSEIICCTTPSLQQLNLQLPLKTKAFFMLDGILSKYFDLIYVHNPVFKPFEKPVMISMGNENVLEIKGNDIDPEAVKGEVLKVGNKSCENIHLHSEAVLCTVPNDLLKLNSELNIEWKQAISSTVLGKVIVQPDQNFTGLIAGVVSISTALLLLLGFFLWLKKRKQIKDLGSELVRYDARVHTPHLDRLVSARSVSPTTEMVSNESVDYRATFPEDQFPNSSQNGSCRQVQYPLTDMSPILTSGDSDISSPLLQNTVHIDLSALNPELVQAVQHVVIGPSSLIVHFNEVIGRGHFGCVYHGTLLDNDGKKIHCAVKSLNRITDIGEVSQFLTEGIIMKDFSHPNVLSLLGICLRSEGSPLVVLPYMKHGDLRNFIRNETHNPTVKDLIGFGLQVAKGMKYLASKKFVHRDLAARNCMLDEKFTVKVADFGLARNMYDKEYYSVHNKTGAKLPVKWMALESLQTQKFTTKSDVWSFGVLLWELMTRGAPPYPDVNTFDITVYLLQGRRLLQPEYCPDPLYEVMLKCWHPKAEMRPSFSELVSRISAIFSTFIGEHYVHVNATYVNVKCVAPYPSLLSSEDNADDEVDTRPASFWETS

| Structure (SMILES) | EC50 (Ba/F3-TPR-MET cells) | IC50 (MET D1228N) | EC50 [1] | IC50 (MET) |
| --- | --- | --- | --- | --- |
| CNCCCOc1cc2nccc(Oc3c(F)cc(NC(=O)c4cnccc4OC4CC4)cc3F)c2cc1OC [Example 84, 4-cyclopropoxy-N-(3,5-difluoro-4-((6-methoxy-7-(3-(methylamino)propoxy)quinolin-4-yl)oxy)phenyl)pyridine-3-carboxamide] | 100 to 1000 nM | ≤ 100 nM | ≤ 100 nM | ≤ 100 nM |
| CNCCCOc1cc2nccc(Oc3c(F)cc(NC(=O)c4cnccc4OC4CCC4)cc3F)c2cc1OC [Example 85, 4-cyclobutoxy-N-(3,5-difluoro-4-((6-methoxy-7-(3-(methylamino)propoxy)quinolin-4-yl)oxy)phenyl)pyridine-3-carboxamide] | 100 to 1000 nM | ≤ 100 nM | 100 to 1000 nM | ≤ 100 nM |
| CNCCCOc1cc2nccc(Oc3c(F)cc(NC(=O)c4cnccc4OC4COC4)cc3F)c2cc1OC [Example 86, N-(3,5-difluoro-4-((6-methoxy-7-(3-(methylamino)propoxy)quinolin-4-yl)oxy)phenyl)-4-(oxetan-3-yloxy)pyridine-3-carboxamide] | 100 to 1000 nM | ≤ 100 nM | 100 to 1000 nM | ≤ 100 nM |
| CNCCOc1ccc2c(Oc3c(F)cc(NC(=O)c4cnccc4OC4CC4)cc3F)ccnc2c1 [Example 87, 4-cyclopropoxy-N-[3,5-difluoro-4-({7-[2-(methylamino)ethoxy]quinolin-4-yl}oxy)phenyl]pyridine-3-carboxamide] | ≤ 100 nM | ≤ 100 nM | ≤ 100 nM | ≤ 100 nM |
| NC1(COc2ccc3c(Oc4c(F)cc(NC(=O)c5cnccc5OC5CC5)cc4F)ccnc3c2)CC1 [Example 88] | 100 to 1000 nM | ≤ 100 nM | ≤ 100 nM | ≤ 100 nM |
| O=C(Nc1cc(F)c(Oc2ccnc3cc(OC4CNC4)ccc23)c(F)c1)c1cnccc1OC1CC1 [Example 89, N-(4-{[7-(azetidin-3-yloxy)quinolin-4-yl]oxy}-3,5-difluorophenyl)-4-cyclopropoxypyridine-3-carboxamide] | 100 to 1000 nM | ≤ 100 nM | 100 to 1000 nM | ≤ 100 nM |
| COc1ccc2c(Oc3c(F)cc(NC(=O)c4cnccc4OC4CC4)cc3F)ccnc2c1 [Example 90, 4-cyclopropoxy-N-{3,5-difluoro-4-[(7-methoxyquinolin-4-yl)oxy]phenyl}pyridine-3-carboxamide] | 100 to 1000 nM | ≤ 100 nM | ≤ 100 nM | ≤ 100 nM |
| COc1cc2nccc(Oc3c(F)cc(NC(=O)c4cnccc4OC4CC4)cc3F)c2cc1OC [Example 91, 4-cyclopropoxy-N-{4-[(6,7-dimethoxyquinolin-4-yl)oxy]-3,5-difluorophenyl}pyridine-3-carboxamide] | ≤ 100 nM | ≤ 100 nM | ≤ 100 nM | ≤ 100 nM |
| COc1cc2nccc(Oc3c(F)cc(NC(=O)c4cnccc4OC4CC4)c(F)c3F)c2cc1OC [Example 92, 4-cyclopropoxy-N-{4-[(6,7-dimethoxyquinolin-4-yl)oxy]-2,3,5-trifluorophenyl}pyridine-3-carboxamide] | 100 to 1000 nM | ≤ 100 nM | 100 to 1000 nM | ≤ 100 nM |
| CNCCOc1cc2nccc(Oc3c(F)cc(NC(=O)c4cnccc4OC4CC4)c(F)c3F)c2cc1OC [Example 93, 4-cyclopropoxy-N-[2,3,5-trifluoro-4-({6-methoxy-7-[2-(methylamino)ethoxy]quinolin-4-yl}oxy)phenyl]pyridine-3-carboxamide] | ≤ 100 nM | ≤ 100 nM | ≤ 100 nM | ≤ 100 nM |
| CNCCOc1ccc2c(Oc3c(F)cc(NC(=O)c4cnccc4OC4CC4)c(F)c3F)ccnc2c1 [Example 94, 4-cyclopropoxy-N-[2,3,5-trifluoro-4-({7-[2-(methylamino)ethoxy]quinolin-4-yl}oxy)phenyl]pyridine-3-carboxamide] | ≤ 100 nM | ≤ 100 nM | ≤ 100 nM | ≤ 100 nM |
| COc1cc2nccc(Oc3c(F)cc(NC(=O)c4cnccc4OCCO)cc3F)c2cc1OC [Example 95, N-{4-[(6,7-dimethoxyquinolin-4-yl)oxy]-3,5-difluorophenyl}-4-(2-hydroxyethoxy)pyridine-3-carboxamide] | 100 to 1000 nM | ≤ 100 nM | 100 to 1000 nM | ≤ 100 nM |
| COc1cc2nccc(Oc3c(F)cc(NC(=O)c4cnccc4OC4CC4)cc3F)c2cn1 [Example 96, 4-cyclopropoxy-N-{3,5-difluoro-4-[(7-methoxy-1,6-naphthyridin-4-yl)oxy]phenyl}pyridine-3-carboxamide] | 100 to 1000 nM | ≤ 100 nM | 100 to 1000 nM | ≤ 100 nM |
| COc1cc2c(Oc3c(F)cc(NC(=O)c4cnccc4OC4CC4)cc3F)ccnc2cc1OCCO [Example 97, 4-cyclopropoxy-N-(3,5-difluoro-4-{[7-(2-hydroxyethoxy)-6-methoxyquinolin-4-yl]oxy}phenyl)pyridine-3-carboxamide] | ≤ 100 nM | ≤ 100 nM | ≤ 100 nM | ≤ 100 nM |
| COc1cc2c(Oc3c(F)cc(NC(=O)c4cnccc4OC4CC4)cc3F)ccnc2cc1OC[C@H](C)O [Example 98, 4-cyclopropoxy-N-[3,5-difluoro-4-({7-[(2S)-2-hydroxypropoxy]-6-methoxyquinolin-4-yl}oxy)phenyl]pyridine-3-carboxamide] | ≤ 100 nM | ≤ 100 nM | ≤ 100 nM | ≤ 100 nM |
| COc1cc2c(Oc3c(F)cc(NC(=O)c4cnccc4OC4CC4)cc3F)ccnc2cc1OC[C@@H](C)O [Example 99, 4-cyclopropoxy-N-[3,5-difluoro-4-({7-[(2R)-2-hydroxypropoxy]-6-methoxyquinolin-4-yl}oxy)phenyl]pyridine-3-carboxamide] | ≤ 100 nM | ≤ 100 nM | ≤ 100 nM | ≤ 100 nM |
| O=C(Nc1cc(F)c(Oc2ccnc3cc(OCCO)ccc23)c(F)c1)c1cnccc1OC1CC1 [Example 100, 4-cyclopropoxy-N-(3,5-difluoro-4-{[7-(2-hydroxyethoxy)quinolin-4-yl]oxy}phenyl)pyridine-3-carboxamide] | 100 to 1000 nM | ≤ 100 nM | ≤ 100 nM | ≤ 100 nM |
| C[C@@H](O)COc1ccc2c(Oc3c(F)cc(NC(=O)c4cnccc4OC4CC4)cc3F)ccnc2c1 [Example 101, 4-cyclopropoxy-N-[3,5-difluoro-4-({7-[(2R)-2-hydroxypropoxy]quinolin-4-yl}oxy)phenyl]pyridine-3-carboxamide] | 100 to 1000 nM | ≤ 100 nM | 100 to 1000 nM | ≤ 100 nM |
| C[C@H](O)COc1ccc2c(Oc3c(F)cc(NC(=O)c4cnccc4OC4CC4)cc3F)ccnc2c1 [Example 102, 4-cyclopropoxy-N-[3,5-difluoro-4-({7-[(2S)-2-hydroxypropoxy]quinolin-4-yl}oxy)phenyl]pyridine-3-carboxamide] | 100 to 1000 nM | ≤ 100 nM | 100 to 1000 nM | ≤ 100 nM |
| CC(C)(O)COc1ccc2c(Oc3c(F)cc(NC(=O)c4cnccc4OC4CC4)cc3F)ccnc2c1 [Example 104, 4-cyclopropoxy-N-(3,5-difluoro-4-{[7-(2-hydroxy-2-methylpropoxy)quinolin-4-yl]oxy}phenyl)pyridine-3-carboxamide] | 1000 to 10000 nM | ≤ 100 nM | 100 to 1000 nM | ≤ 100 nM |
| COCCOc1ccc2c(Oc3c(F)cc(NC(=O)c4cnccc4OC4CC4)cc3F)ccnc2c1 [Example 105, 4-cyclopropoxy-N-(3,5-difluoro-4-{[7-(2-methoxyethoxy)quinolin-4-yl]oxy}phenyl)pyridine-3-carboxamide] | 100 to 1000 nM | ≤ 100 nM | ≤ 100 nM | ≤ 100 nM |
| COCCOc1cc2nccc(Oc3c(F)cc(NC(=O)c4cnccc4OC4CC4)cc3F)c2cc1OC [Example 106, 4-cyclopropoxy-N-(3,5-difluoro-4-{[6-methoxy-7-(2-methoxyethoxy)quinolin-4-yl]oxy}phenyl)pyridine-3-carboxamide] | ≤ 100 nM | ≤ 100 nM | ≤ 100 nM | ≤ 100 nM |
| COc1cc2nccc(Oc3c(F)cc(NC(=O)c4cnccc4OC4CC4)cc3F)c2cc1OCCO [Example 107, 4-cyclopropoxy-N-(3,5-difluoro-4-((6-(2-hydroxyethoxy)-7-methoxyquinolin-4-yl)oxy)phenyl)pyridine-3-carboxamide] | ≤ 100 nM | ≤ 100 nM | ≤ 100 nM | ≤ 100 nM |
| CC(C)(CO)Oc1ccc2c(Oc3c(F)cc(NC(=O)c4cnccc4OC4CC4)cc3F)ccnc2c1 [Example 108, 4-cyclopropoxy-N-(3,5-difluoro-4-((7-((1-hydroxy-2-methylpropan-2-yl)oxy)quinolin-4-yl)oxy)phenyl)pyridine-3-carboxamide] | 1000 to 10000 nM | ≤ 100 nM | 1000 to 10000 nM | ≤ 100 nM |
| CNCCOc1ccc2c(Oc3c(F)cc(NC(=O)c4cnc(F)cc4OC4CC4)cc3F)ccnc2c1 [Example 109, 4-cyclopropoxy-N-(3,5-difluoro-4-((7-(2-(methylamino)ethoxy)quinolin-4-yl)oxy)phenyl)-6-fluoropyridine-3-carboxamide] | ≤ 100 nM | ≤ 100 nM | ≤ 100 nM | ≤ 100 nM |
